According to US12522877B2, “Early detection of drug-resistant mycobacterium tuberculosis” (The Translational Genomics Research Institute, priority 2020, dated 2026):

Tests used:
M. tuberculosis isolates [1] = format: cell-based, Mycobacterium tuberculosis
[2] = human, in vivo
[3] = in vivo; cited from earlier work
M. tuberculosis isolates [4] = format: cell-based, Mycobacterium tuberculosis; remark: listed apart in the source

NCC[C@H](O)C(=O)N[C@@H]1C[C@H](N)[C@@H](O[C@H]2O[C@H](CN)[C@@H](O)[C@H](O)[C@H]2O)[C@H](O)[C@H]1O[C@H]1O[C@H](CO)[C@@H](O)[C@H](N)[C@H]1O [Amikacin]
Phenotypic DST (M. tuberculosis isolates [1]): S
Phenotypic susceptibility (M. tuberculosis isolates [1]): phenotypically susceptible
Routine phenotypic DST (M. tuberculosis isolates [1]): susceptible

NNC(=O)c1ccncc1 [Isoniazid]
adverse effect for which the drug was stopped [2]: vision problems

CC1COc2c(N3CCN(C)CC3)c(F)cc3c(=O)c(C(=O)O)cn1c23 (stereo not drawn) [Ofloxacin]
Phenotypic DST (M. tuberculosis isolates [1]): S and R

NC(=O)c1cnccn1 [Pyrazinamide]
adverse effect for which the drug was stopped [2]: persistent arthralgias and changes in vision

COc1nc2ccc(Br)cc2cc1[C@@H](c1ccccc1)[C@@](O)(CCN(C)C)c1cccc2ccccc12 [bedaquiline]
half-life [3]: 5.5 months
acquired resistance to bedaquiline (M. tuberculosis isolates [4]): 39%

CC[C@@H](CO)NCCN[C@@H](CC)CO [ethambutol]
adverse effect for which the drug was stopped [2]: persistent arthralgias and changes in vision
